# Results reported in a melting point compilation (Tetko et al.; mined from patent text by program, amines drawn as free bases though some values may be those of a salt).
row,Compound,melting point
1,COC(=O)[C@@H]1C[C@H](OC(=O)c2ccccc2)C(=O)[C@H]2[C@@]1(C)CC[C@H]1C(=O)O[C@H](c3ccoc3)C[C@]21C,165 to 170 °C
2,Fc1ccc(Nc2ncnc3cnc(N4CCC(CCCC5CCNCC5)CC4)nc23)cc1Cl,128 to 130 °C
3,O=C1CCN(Cc2ccccc2)CC1=C(c1ccccc1)c1ccccc1,135 to 137 °C
4,CCOC(=O)CCC(=O)c1ccc(CCN(CC=Cc2ccc(Cl)cc2)S(=O)(=O)c2ccc(Cl)cc2)cc1,100 to 101 °C
5,COc1ccc2c(c1)C(=O)C(=Cc1cccnc1)CO2,127 to 131 °C
6,O=C(O)c1cnoc1-c1ccc(Cl)cc1Cl,122 to 123 °C
7,C=C1c2ccccc2CC(=NO)c2ccccc21,156 to 160 °C
8,Nc1cccc(C(F)(F)C(F)(F)C(F)(F)C(F)(F)C(F)(F)C(F)(F)C(F)(F)C(F)(F)F)c1,35.5 to 36 °C
9,CC(CO)(CO)NCc1cc2c3ccccc3ccc2c2ccccc12,200 to 202 °C
10,O=C(NCCO)c1cccc(-c2ccc3ccn(-c4ccc(Cl)cc4Cl)c3n2)c1,159 to 160 °C
11,Cc1nnc2n1-c1ccccc1C(c1ccccc1)=NC2NC(=O)Nc1ccc(Cl)cc1 (configuration not stated),292 to 294 °C
12,CC1(C)OC(c2ccc(S(C)(=O)=O)cc2)=C(c2cc3ccccc3s2)C1=O,204 to 206 °C
13,CP1(=O)c2ccccc2CN1c1ccc(Br)cc1 (configuration not stated),135 to 136 °C
14,CCc1nc2c(cnn2CC)c(NC2CCOCC2)c1CNC(=O)c1cccc(C(=O)NCc2ccc(F)c(-c3cccc(CN4CCNC(=O)C4)c3)c2)c1,147 to 150 °C
15,O=C(Nc1ccc(S(=O)(=O)C(F)(F)F)cc1Cl)c1cc(S(=O)c2ccc(F)cc2)c2ccccc2c1O (configuration not stated),198 to 200 °C
16,Cc1cc(Br)cc(Br)c1NC(=N)Nc1c(C)cc([N+](=O)[O-])cc1Br,193 to 195 °C
17,COC(=O)c1c(C(=O)OC)c(-c2cc(OC)c(OC)c(OC)c2)c2c(OC)c(OC)c(OC)cc2c1O,165 to 167 °C
18,CS(=O)(=O)C(=C1CN(C(c2ccccc2)c2ccccc2)C1)c1cc(C(F)(F)F)cc(C(F)(F)F)c1,192 °C
19,COc1ccc(-c2[nH]cnc2-c2cc(OC)c(Br)c(OC)c2)cc1N,160 to 162 °C
20,Cc1noc(C)c1-c1ccc2c(c1)ncc1ncn(-c3ccccc3C(C)(C)C)c12,216 °C
21,CC1(C)C=C(c2ccccn2)c2ccccc2O1,80 to 82 °C

row,Compound,melting point
1,Cc1c(C#N)c(-c2ccc(C#N)cc2)c(C)n1Cc1ccc(Cl)c(COC(=O)CCC(=O)O)c1,149 to 151 °C
2,Cc1cc(SCc2ccc(OCc3ccc(C(C)(C)C)cc3)cc2)ccc1OCC(=O)O,135 to 137 °C
3,CCC(=O)OCOC(=O)C1=C(C)N(COC)C(C)=C(C(=O)OCOC(=O)CC)C1c1cccc([N+](=O)[O-])c1,86 to 87 °C
4,COc1ccc2c(c1)c(C=O)cn2CCCCl,75 to 76 °C
5,Cc1cc(NC2=NCCN2)n(C(C)C)n1,173 to 175 °C
6,Cn1ccc2c1CCN1C(=O)CCC21 (configuration not stated),122 to 125 °C
7,Cc1cc(F)cc2c1CC/C2=C\C(N)=O,178 to 180 °C
8,Cc1ccc(-c2ccc3c(c2)C=C(C(=O)Nc2ccc(CSC4CCCCC4)cc2)CCO3)cc1,161 to 162 °C
9,CN(C)c1ccc2[nH]c3c([N+](=O)[O-])ccc(Cl)c3c(=O)c2c1,> 300 °C
10,CC(C)c1cccc(C(C)C)c1NC(=O)NCC1(c2ccc(N(C)C)cc2)CCCC1,132 to 133 °C
11,Cc1cccc(C)c1NC(=O)CN1CCN2C(C1)C(=O)N(C(C)C)C2(C)C (configuration not stated),155 °C
12,O=C1c2cccc3cccc(c23)C(=O)N1C1OC(CO)C(O)C(O)C1O (configuration not stated),285 to 286 °C
13,CC(C)(C)OC(=O)N1CC2CCCCC(C1)C2C(=O)O (configuration not stated),218 to 222 °C
14,O=C(Nc1ccc(Cl)c(C(F)(F)F)c1)Oc1ccc2c(c1)CCCN2Cc1ccccc1,151 °C
15,CCCc1ccc(Oc2ccc3c(c2)C=C(C(=O)Nc2ccc(CN(C)C4CCOCC4)cc2)CCS3(=O)=O)cc1,147 to 149 °C
16,O=C(O)CCC(Cc1ccccc1Cl)(C(=O)C=Cc1ccc(Cl)cc1)c1ccccc1 (configuration not stated),184 to 187 °C
17,O=[N+]([O-])c1ccc(NN=CCc2cccnc2)cc1,212 to 214 °C
18,Nc1nc(N)c(CCCCCc2ccccc2)c(CCCCc2ccccc2)n1,75 to 78 °C
19,CS(=O)(=O)c1ccc(-c2oc3ccccc3c(=O)c2-c2ccc(F)c(Cl)c2)cc1,196 °C
20,CC1(C)CCC(C(=O)N2CCC[C@H]2C(=O)O)C1SC(=O)c1ccccc1 (some centres not stated),187 °C

# Continued, values first:
row,melting point,Compound
1,168 to 170 °C,COc1cc2ncnc(N3CCN(C(=O)NCc4cccs4)CC3)c2cc1OC
2,109 °C,COC(=O)CCCc1cc2nc(Cl)ccc2n1S(=O)(=O)c1ccc(OC(F)(F)F)cc1
3,210 to 212 °C,CC(=O)OCc1nc2nccnc2c(=O)[nH]1
4,290 to 292 °C,CC(=O)Nc1nc2ccc(S(=O)(=O)n3c(CCC(=O)O)cc4cc(C(F)(F)F)ccc43)cc2s1
5,87 to 88 °C,COC(=O)CC(NC(=O)C1CCCCC1)C(C)=O (configuration not stated)
6,139 °C,CCN(CC1CCCC1)c1nc2c(cc1CN(Cc1cc(C(F)(F)F)cc(C(F)(F)F)c1)C(N)=O)c(C)nn2C
7,162 °C,CN(C)CCNS(=O)(=O)c1cc(NC(=O)c2cnn3c(C(F)F)cc(-c4ccc(C(F)(F)F)cc4)nc23)c(Cl)s1
8,81 to 82 °C,Cc1c(NCCNCC(O)COc2ccccc2)n(C)c(=O)n(C)c1=O (configuration not stated)
9,122 to 124 °C,COc1ccc2[nH]c3c(c2c1)CCSCCC3
10,180 to 183 °C,CCCCOc1cc(C(=O)O)cc(NC=O)c1C(=O)c1ccccc1
11,151 to 155 °C,COc1cc2ncnc(N3CCC(NCc4ccccn4)CC3)c2cc1OC
12,188 to 190 °C,CNC(=S)C1(c2cccnc2)CCCCC1=O (configuration not stated)
13,204 °C,CCn1nc(C)c2c1C(=O)NCC(c1cccc(O)c1)=N2
14,205 to 207 °C,CCOC(=O)C1Cc2c([nH]c3ccccc23)CN1C(=S)SCc1cccs1 (configuration not stated)
15,166 to 169 °C,Cn1nc(-c2ccc(S(C)(=O)=O)cc2)c(-c2ccc(F)cc2)c1OCC(=O)c1ccc(F)cc1
16,207 to 208 °C,Cc1ccc(-c2nc3n(n2)Cc2ccccc2-3)cc1
17,157 to 158 °C,CCCCCCCCCCCCCCNC1=NS(=O)(=O)c2sc(Cl)cc2N1
18,175 °C,CCCCOc1ccc(C(=O)c2cccc(C(=O)O)c2)c(O)c1
19,97 to 98 °C,CCOC(=O)N1CCN(c2c(F)cc([N+](=O)[O-])c(NC3CC3)c2C)CC1

row,melting point,Compound
1,98 to 101 °C,CC(C)(C)OC(=O)N1CCC[C@H](COc2ccccc2O)C1
2,73 to 75 °C,CCOC(=O)[C@H](CCc1ccccc1)N(C(=O)OCC(Cl)(Cl)Cl)[C@@H](C)C(=O)O
3,209 to 211 °C,CC(C)(C)OC(=O)NCC(=O)N1CCC(=C2c3ccc(Cl)cc3CCc3cccnc32)CC1
4,142 to 143 °C,N#Cc1cc(C(=O)NNC(=O)c2occc2-c2ccccc2OCC2CCCCC2)ccc1O
5,122 to 124 °C,CCC(CO)Nc1cc(C)nc(Oc2c(C)cc(Cl)cc2C)c1C(=O)OC (configuration not stated)
6,98 °C,CCOc1nc(O)ns1
7,95.5 to 96.5 °C,COc1cccc(C(O)CNCCc2ccc(OC)c(OC)c2Cl)c1 (configuration not stated)
8,183 to 185 °C,Cc1sc2c(Br)c3ccccc3c(-c3ccc(O)c([N+](=O)[O-])c3)c2c1C
9,293 to 294 °C,CC(C)(C)c1ccc(C(=O)Nc2cn3cc(-c4ccncc4)ccc3n2)cc1
10,235 to 237 °C,CCOC(=O)C(=O)Nc1ccc2c(c1)CC(=O)N2
11,38.7 to 40.1 °C,CCN(C#N)C(=O)CCCCC(=O)N(C#N)CC
12,158 to 159 °C,COc1ccc([C@H](Cc2ccncc2)c2ccccc2)cc1O
13,103 to 118 °C,COc1cc(OCc2ccncc2)ccc1/C=C/c1cc(/C=C/c2ccc3cc[nH]c3c2)n[nH]1
14,67 to 69 °C,Cc1ccn2c(C)c(CCc3ccc4nc(N(C)C)oc4c3)nc2c1
15,133 °C,Cc1ccc(Cc2nc3c(cnn3C(CCCc3ccccc3)C(C)O)c(=O)[nH]2)cc1 (configuration not stated)
16,112 to 113 °C,Cc1cccc(OCC(=S)NCCNC(=S)Nc2ccccc2)c1C
17,164 to 165 °C,CC(C)n1nc(-c2cnc(N)nc2-c2cccc(C(F)(F)F)c2)ccc1=O
18,138 to 139 °C,CC(C)Cc1ccc(C2(c3ccccc3)OC(=O)C(O)=C2O)cc1 (configuration not stated)
19,170 °C,Cc1ccc(-c2nc3ccccc3s2)nc1

row,melting point,Compound
1,202 to 204 °C,Cc1cccc2ncc(C(=O)Nc3ccc(F)cc3)c(=O)n12
2,107 to 108 °C,CC(C)(C)[Si](C)(C)O[C@@H]1[C@H](O)C[C@]2(O[Si](C)(C)C(C)(C)C)C[C@H]1OC2=O
3,141 °C,COc1ncccc1-c1ncc(OC2SCC(O)C(O)C2O)cc1F (configuration not stated)
4,158 to 160 °C,CCOC(=O)N1CCN(C(=O)Cn2sc3ccccc3c2=O)CC1
5,173 to 174 °C,Clc1ccn2ncc(Br)c2n1
6,192 to 198 °C,CC(C)C1(C)N=C(c2ccccc2C(=O)O)NC1=S (configuration not stated)
7,166 °C,CC(C)(C)c1ccc(C(O)(c2ccccc2)c2ncc[nH]2)cc1 (configuration not stated)
8,138 to 139 °C,CCOC(=O)Cn1c(=O)c2ccccc2n(Cc2ccc(Cl)cc2)c1=O
9,221 to 223 °C,Cc1csc2c(Sc3nnc(N)s3)ncnc12
10,146 to 148 °C,CCNC(=S)NS(=O)(=O)c1cc(CCNC(=O)C=Cc2ccc(OC)cc2OC)ccc1OCCOC
11,190 to 191 °C,CC(C)(C)c1cc(-c2nn(C3(C)COC(=O)O3)c3ncccc23)cc(C(C)(C)C)c1O (configuration not stated)
12,124 to 125 °C,CCCCN=C1c2ccccc2CCc2c1nc1c(cnn1CC)c2NCCCC
13,109 °C,Cn1nc(C(F)(F)F)cc1Oc1cc(C#N)cc(OCc2ccc(F)cc2F)n1
14,178 to 180 °C,CC(C)(C)OC[C@@H]1NCCN(CC(=O)O)C1=O
15,205 to 206 °C,C=COC(=O)NC1Cc2ccc(-c3ccc(=O)[nH]n3)cc2C1 (configuration not stated)
16,31 °C,CC(=O)CCC(=O)c1ccccc1
17,66 to 67 °C,CCOC(=O)c1ccc2ncccc2c1
18,130 °C,COc1ccc(C(=O)Nc2ccc3ccc(SC)nc3n2)cc1
